Measurements: ChEMBL document CHEMBL1123597, “Synthesis and structure-activity relationships of pyrazolo[4,3-d]pyrimidin-7-ones as adenosine receptor antagonists” (J Med Chem, 1987)

Each compound was assayed against T1, Adenosine receptor A1 (Rattus norvegicus, UniProt P25099) (assay: Binding affinity against adenosine A1 receptor in rat brain membrane preparations using N6-[3H]cyclohexyladenosine as a radioligand). Settings: not given.
T1 sequence (P25099 whole entry): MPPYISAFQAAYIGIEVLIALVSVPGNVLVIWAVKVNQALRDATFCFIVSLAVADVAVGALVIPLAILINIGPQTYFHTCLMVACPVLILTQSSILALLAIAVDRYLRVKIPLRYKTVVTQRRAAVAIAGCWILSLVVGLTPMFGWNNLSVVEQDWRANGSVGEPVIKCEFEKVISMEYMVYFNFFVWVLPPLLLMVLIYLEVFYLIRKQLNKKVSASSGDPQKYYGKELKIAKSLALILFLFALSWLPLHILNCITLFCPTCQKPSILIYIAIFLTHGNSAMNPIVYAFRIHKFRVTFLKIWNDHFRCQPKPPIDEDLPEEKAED
Assay type: cell membranes
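Throughout, for PCY: radioligand displacement of N6-[3H]cyclohexyladenosine binding in rat brain membranes, PCY computed as the log of 100000 divided by IC50.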

Compound | IC50 [nM]
Cc1nn(C)c2c(=O)[nH]c(-c3ccc(Cl)cc3N)nc12 | 310
Cc1nn(C)c2c(O)nc(-c3ccccc3N)nc12 | 230
Cc1nn(C)c2c(O)nc(-c3ccc(S(=O)(=O)O)cc3)nc12 | 2300
COc1cc(OC)cc(-c2nc(O)c3c(n2)c(C)nn3C)c1 | 7060
CC(Sc1nc(SC(C)C(N)=O)c2cnn(-c3ccccc3)c2n1)C(N)=O (centres undefined) | 1030
Cc1nn(C)c2c(=O)[nH]c(-c3ccc(S(=O)(=O)NCCN(C)C)cc3)nc12 | 68
Cc1nn(C)c2c(=O)[nH]cnc12 | 20100
CCn1nc(C)c2nc(Cc3ccccc3)nc(O)c21 | 820
CCn1nc(C)c2nc(-c3ccncc3)[nH]c(=O)c21 | 250
COc1cccc(-c2nc3c(C)nn(C)c3c(=O)[nH]2)c1 | 1470
Cc1nn(C)c2c(=O)[nH]c(Cc3ccccc3)nc12 | 1310

Other lines, results leading:

IC50 [nM] | Compound
50 | Cn1c(=O)c2nc(-c3cccc([N+](=O)[O-])c3)[nH]c2n(C)c1=O
350 | COc1ccccc1-c1nc2c([nH]1)c(=O)n(C)c(=O)n2C
400 | Cc1ccc(-c2nc3c(C)nn(C)c3c(=O)[nH]2)cc1
200 | COc1ccc(-c2nc3c([nH]2)c(=O)n(C)c(=O)n3C)c(OC)c1
0.8 | Cc1ccc(-c2nc3c([nH]2)c(=O)n(C)c(=O)n3C)cc1
380 | Cc1nn(C)c2c(=O)[nH]c(-c3ccc(N)cc3)nc12
500 | COc1cc(OC)cc(-c2nc3c([nH]2)c(=O)n(C)c(=O)n3C)c1
0.4 | Cn1c(=O)c2[nH]c(-c3ccc(Cl)cc3N)nc2n(C)c1=O
50 | Cn1c(=O)c2[nH]c(-c3cccnc3)nc2n(C)c1=O
5 | Cn1c(=O)c2nc(-c3ccc(Cl)c(Cl)c3)[nH]c2n(C)c1=O
1.8 | Cn1c(=O)c2[nH]c(-c3ccc(N)cc3)nc2n(C)c1=O
3 | CCn1c(=O)n(C)c(=O)c2[nH]c(-c3ccccc3)nc21
5.5 | Cn1c(=O)c2nc(-c3ccccc3N)[nH]c2n(C)c1=O
1500 | Cn1c(=O)c2[nH]c(Cc3ccccc3)nc2n(C)c1=O
0.8 | Cn1c(=O)c2[nH]c(-c3ccc(Cl)cc3)nc2n(C)c1=O
8 | Cn1c(=O)c2[nH]c(-c3ccc([N+](=O)[O-])cc3)nc2n(C)c1=O
10 | Cn1c(=O)c2[nH]c(-c3cccc(N)c3)nc2n(C)c1=O

Each compound was assayed against T2, Adenosine receptor A1 (Rattus norvegicus) (UniProt P25099). Settings: Brain; Membrane.
T2 sequence (whole entry): T1 sequence (P25099 whole entry)
Description: Binding affinity against adenosine A1 receptor in rat brain membrane preparations using N6-[3H]cyclohexyladenosine as radioligand, PCY = log (100000/IC50).

Compound | PCY
Cc1ccc(-c2nc(O)c3c(n2)c(C)nn3C)cc1 | 2.4
Cn1c(=O)c2nc(-c3ccc(Cl)cc3N)[nH]c2n(C)c1=O | 5.4
Cn1c(=O)c2nc(Cc3ccccc3)[nH]c2n(C)c1=O | 1.8
Cc1nn(C)c2c(O)nc(-c3ccc(Cl)c(Cl)c3)nc12 | 2
Cc1nn(C)c2c(O)nc(-c3ccncc3)nc12 | 2
Cc1nn(C)c2c(O)nc(-c3ccc(N)cc3)nc12 | 2.4
Cc1nn(C)c2c(O)nc(-c3ccc(Cl)cc3)nc12 | 2.4
CCn1nc(C)c2nc(-c3ccccc3)nc(O)c21 | 2.2
Cc1nn(C)c2c(O)nc(-c3ccccc3N)nc12 | 2.6
Cc1nn(C)c2c(O)ncnc12 | 0.7
Cc1nn(C)c2c(O)nc(-c3ccccc3)nc12 | 2
Cc1nn(C)c2c(O)nc(-c3ccc(S(=O)(=O)O)cc3)nc12 | 1.6
Cc1nn(C)c2c(O)nc(Cc3ccccc3)nc12 | 1.9
Cc1nn(C)c2c(O)nc(-c3ccc([N+](=O)[O-])cc3)nc12 | 2.1
Cc1nn(C)c2c(O)nc(-c3cccc([N+](=O)[O-])c3)nc12 | 1.9
COc1cc(OC)cc(-c2nc(O)c3c(n2)c(C)nn3C)c1 | 1.2
Cc1nn(C)c2c(O)nc(-c3ccc(Cl)cc3N)nc12 | 2.5
COc1ccccc1-c1nc(O)c2c(n1)c(C)nn2C | 1
Cc1nn(C)c2c(O)nc(-c3cccc(N)c3)nc12 | 1.8
COc1ccc(-c2nc(O)c3c(n2)c(C)nn3C)cc1OC | 1.7
COc1ccc(-c2nc(O)c3c(n2)c(C)nn3C)c(OC)c1 | 1.3
Cc1nn(C)c2c(O)nc(-c3cccnc3)nc12 | 1.5
COc1cccc(-c2nc(O)c3c(n2)c(C)nn3C)c1 | 1.8

The remaining lines, values ahead:

PCY | Compound
3.7 | COc1cccc(-c2nc3c(=O)n(C)c(=O)n(C)c3[nH]2)c1
3.6 | Cn1c(=O)c2nc(-c3ccc(S(=O)(=O)O)cc3)[nH]c2n(C)c1=O
3.3 | Cn1c(=O)c2nc(-c3cccnc3)[nH]c2n(C)c1=O
4.3 | Cn1c(=O)c2nc(-c3ccc(Cl)c(Cl)c3)[nH]c2n(C)c1=O
2.5 | COc1ccccc1-c1nc2c(=O)n(C)c(=O)n(C)c2[nH]1
4.7 | Cn1c(=O)c2nc(-c3ccc(N)cc3)[nH]c2n(C)c1=O
4.5 | CCn1c(=O)n(C)c(=O)c2[nH]c(-c3ccccc3)nc21
4.3 | Cn1c(=O)c2nc(-c3ccccc3N)[nH]c2n(C)c1=O
